What was measured:
5-HT reuptake = experiment: Inhibition of 5-HT reuptake in rat brain synaptosomes (P2 fraction, medulla + pons region); type: biochemical; settings: for Ki: medulla + pons, Ki from IC50 by Cheng-Prusoff
Description: (§1) a) Studies of the inhibition of 5-HT and NA reuptake
(§2) In order to be able to carry out these in vitro studies, synaptosomes are freshly isolated from areas of rat brain. A so-called “P2” fraction is used in each case, which is prepared exactly according to the procedure of Gray, E. G. and Whittaker, V. P. (J. Anat. 76, 79-88, 1962). For NA reuptake, these vesicular particles are isolated from the hypothalamus of male rat brains, and for 5-HT reuptake, they are isolated from the medulla +pons region.
(§3) The following characteristic data were determined for the NA and 5-HT reuptake: • NA uptake: Km=0.32±0.11 μM • 5-HT uptake: Km=0.084±0.011 μM (in each case N=4, i.e. mean values ± SEM from 4 independent test series which were carried out in triplicate parallel tests).
(§4) A detailed description of the method can be found in the publication of Frink, M., Hennies, H. H., Englberger, W. et al. (Arzneim.-Forsch./Drug Res. 46 (III), 11, 1029-1036, 1996) (the batch can also be carried out on microtitre plates (250 μl/well) at room temperature).
(§5) In addition to % inhibitions at fixed concentrations of test substance (e.g. 1×10^−6 M or 1×10^−5 M in the batch), dose dependencies were also checked. IC50 values were obtained thereby which can be converted into inhibitor constants (Ki) according to the “Cheng-Prusoff equation” (Cheng, Y. C. and Prusoff, W. H., Biochem. Pharmacol. 22, 3099-3108, 1973). The IC50 values were obtained with the aid of the “Figure P” computer program (Version 6.0, Biosoft, Cambridge, England). Km values were calculated according to Lineweaver, H. and Burk, D. (J. Am. Chem. Soc. 56, 658-666, 1934). The “Ligand” computer program (Version 4, Biosoft, England) was used to show KD values.

NA reuptake = experiment: Inhibition of NA reuptake in rat brain synaptosomes (P2 fraction, hypothalamus); type: biochemical; settings: for Ki: hypothalamus, Ki from IC50 by Cheng-Prusoff
Description: as §1, §2, §3, §4, §5

[1] = system: phenylquinone-induced writhing reactions; experiment: Analgesic activity in the writhing test in the mouse; type: in vivo
Description: c) Studies of Analgesic Activity in the Writhing Test in the Mouse
The writhing test in the mouse is a modification of the method according to Hendershot L C, Forsaith, J, J Pharmacol Exp Ther 125: 237-240 (1959).
0.3 ml/animal of a 0.02% aqueous phenylquinone solution, with the addition of 5% ethanol, is administered intraperitoneally to the animals as pain stimulus. This solution is administered 30 minutes (test substance p.o.) or 10 minutes (test substance i.v.) after administration of the test substance. The pain-induced stretching movements (so-called writhing reactions=straightening of the body with extension of the rear extremities) are recorded 5 to 20 minutes after the administration of phenylquinone. The animals treated with the test substance are compared with a control group that received physiological saline. Size of the group n=10.

[2] = system: formalin-induced nociceptive behaviour (chronic pain component); experiment: Analgesic activity in the formalin test in the mouse; type: in vivo
Description: b) Studies of Analgesic Activity in the Formalin Test in the Mouse The formalin test (Dubuisson, D. and Dennis, S. G., 1977, Pain, 4, 161-174) represents a model for acute and chronic pain. In the studies presented here, the chronic pain component was evaluated. By means of a single formalin injection into the dorsal side of a rear paw, a biphase nociceptive reaction is induced in freely mobile test animals; the reaction is assessed by observing three markedly different behaviour patterns. Formalin is injected subcutaneously in a volume of 20 μl and a concentration of 1% into the dorsal side of the right rear paw of each animal. The specific behavioural changes differing from normal behaviour (score 0), such as lifting (score 1) and shaking of the paw (score 2), as well as biting and licking reactions (score 3), are observed and recorded continuously at 3-minute intervals for 60 minutes after the formalin injection. […] The size of the group was 10 animals (n=10). On the basis of the PR calculations, the activity of the substance was determined in percent as the change relative to a control. The ED50 was determined by means of regression analysis.

[3] = system: duration of the phase of immobility; experiment: Antidepressant activity in the forced swimming test (Porsolt test) in the mouse; type: in vivo; settings: for Relative duration of the phase of immobility versus control: i.p.
Description: d) Study of Antidepressant Activity in the Forced Swimming Test (Porsolt Test) in the Mouse The studies to determine the antidepressant activity of the compounds of formula I according to the invention were carried out in the forced swimming test (Porsolt test) in the mouse (Porsolt, R. et al., Arch. Int. Pharmacodyn. Vol. 229, p. 327-336 (1977)). Male mice (20-25 g body weight) were placed individually for a period of 6 minutes into a flat water tank from which they were unable to escape and accordingly were forced to swim. After some time, the animals gave up their attempts to swim and entered a phase of immobility. In the interval of from 2 to 6 minutes after introduction of the animal, the duration of the phase of immobility was determined. Test substance and vehicle groups each comprise 10 animals. Changes in the duration of the phase of immobility are stated relative to the vehicle control. Antidepressants induce a shortening of the phase of immobility.

| Compound | melting point | Inhibition of 5-HT reuptake (in words) (5-HT reuptake) | Ki (5-HT reuptake) | Inhibition of NA reuptake (in words) (NA reuptake) | Ki (NA reuptake) | Inhibition of the nociceptive behaviour, writhing test (in words) [1] | ED50 ([1]; i.v., phenylquinone i.p.) | Inhibition of the nociceptive behaviour, formalin test (in words) [2] | ED50 ([2]; iv, chronic pain component) | Shortening of the phase of immobility, forced swimming test (in words) [3] | Relative duration of the phase of immobility versus control ([3]; 10 mg/kg) | Relative duration of the phase of immobility versus control ([3]; 21.5 mg/kg) | Relative duration of the phase of immobility versus control ([3]; 31.6 mg/kg, ***p < 0.001) | Relative duration of the phase of immobility versus control ([3]; 46.4 mg/kg, ***p < 0.001) |
| --- | --- | --- | --- | --- | --- | --- | --- | --- | --- | --- | --- | --- | --- | --- |
| CN(C)CC1=C(Cc2ccc(Cl)cc2)CCCCCC1.Cl [Example 2b, [2-(4-chlorobenzyl)-cyclooct-1enylmethyl]-dimethylamine; hydrochloride] | 234 to 237 °C | dose-dependent inhibition | 0.03 µM | dose-dependent inhibition | 0.34 µM |  |  |  |  |  |  |  |  |  |
| CN(C)CC1=C(Cc2ccc(Cl)cc2)CCCCC1.Cl [Example 1, [2-(4-Chlorobenzyl)-cyclohept-1-enylmethyl]-dimethylamine; hydrochloride] |  | dose-dependent inhibition | 0.003 µM | dose-dependent inhibition | 0.03 µM | dose-dependent inhibition | 3.04 mg/kg | dose-dependent inhibition | 4.71 mg/kg | significant shortening of the phase of immobility | +9% | −34% | −67%*** | −76%*** |
| CN(C)CC1=C(Cc2ccc(Cl)cc2)CCC1.Cl | 191 °C |  |  |  |  |  |  |  |  |  |  |  |  |  |

Source: patent US7342133B2, “Substituted amino compounds as 5-HT/NA uptake inhibitors” (Gruenenthal GmbH, priority 2004, dated 2008)
